The record followed here is patent US9102678B2, “Compounds and methods for inhibiting mitotic progression” (Millennium Pharmaceuticals, Inc., priority 2004, dated 2015).

Each structure is given as a SMILES string. pIC50: −log10 of the molar value.

The target in this assay is T1, recombinant murine Aurora A enzyme (Mus musculus, UniProt P97477).
T1 construct: hexahistidine (His6) (N); made in house; host or cells: insect cells, baculovirus (Bac-to-Bac, Invitrogen)
T1 sequence (P97477 whole entry): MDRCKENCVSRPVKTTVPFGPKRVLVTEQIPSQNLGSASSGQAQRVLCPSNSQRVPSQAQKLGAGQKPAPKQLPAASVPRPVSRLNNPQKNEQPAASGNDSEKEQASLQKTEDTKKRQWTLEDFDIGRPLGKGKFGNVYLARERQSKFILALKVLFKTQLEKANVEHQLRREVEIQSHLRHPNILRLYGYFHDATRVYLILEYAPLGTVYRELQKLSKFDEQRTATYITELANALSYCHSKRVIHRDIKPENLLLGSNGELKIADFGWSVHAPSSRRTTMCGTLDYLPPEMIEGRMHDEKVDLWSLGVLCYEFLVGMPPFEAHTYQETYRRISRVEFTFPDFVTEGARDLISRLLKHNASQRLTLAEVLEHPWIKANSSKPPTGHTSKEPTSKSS
Put plainly: Aurora A DELFIA Kinase Assay. The note with it: mouse Aurora A, 250 μM ATP; threshold less than or equal to 100 nM; read-out: IC50. Format: biochemical.
In the case of `O=C(O)c1ccc(Nc2ncc3c(n2)-c2ccc(Cl)cc2C(c2ccccc2Cl)=NC3)cc1` [Compound I-53, 4-[9-Chloro-7-(2-chloro-phenyl)-5H-benzo[c]pyrimido[4,5-e]azepin-2-ylamino]-benzoic acid], the negative logarithm of the IC50 (pIC50) (in general, the IC50 on a negative log10 scale, so that one unit is a factor of ten) was ≥ 7.00.
Then `CC1CN(C(=N)c2ccc(Nc3ncc4c(n3)-c3ccc(Cl)cc3C(c3c(F)cccc3F)=NC4)cc2)CC(C)N1` (stereo not shown) [Compound I-251, [9-Chloro-7-(2,6-difluoro-phenyl)-5H-benzo[c]pyrimido[4,5-e]azepin-2-yl]-{4-[(3,5-dimethyl-piperazin-1-yl)-imino-methyl]-phenyl}-amine], with ≥ 7.00; and `COC(=O)C1CN(C(=O)c2ccc(Nc3ncc4c(n3)-c3ccc(Cl)cc3C(c3c(F)cccc3F)=NC4)cc2)CCN1` (stereo not shown) [Compound I-248, methyl 4-(4-{[9-chloro-7-(2,6-difluorophenyl)-5H-pyrimido[5,4-d][2]benzazepin-2-yl]amino}benzoyl)piperazine-2-carboxylate], with ≥ 7.00.
Under `COc1cccc(F)c1C1=NCc2cnc(Nc3ccc(C(=O)O)cc3)nc2-c2ccc(Cl)cc21` [Compound I-190, 4-[9-Chloro-7-(2-fluoro-6-methoxy-phenyl)-5H-benzo[c]pyrimido[4,5-e]azepin-2-ylamino]-benzoic acid] stands ≥ 7.00; under `O=C(O)c1ccc(Nc2ncc3c(n2)-c2ccc(Cl)cc2C(c2ccccc2Cl)=NC3)cc1O` [Compound I-86, 4-[9-Chloro-7-(2-chloro-phenyl)-5H-benzo[c]pyrimido[4,5-e]azepin-2-ylamino]-2-hydroxy-benzoic acid], ≥ 7.00; under `NC1CCN(C(=O)c2ccc(Nc3ncc4c(n3)-c3ccc(Cl)cc3C(c3ccccc3C(F)(F)F)=NC4)cc2)C1` (stereo not shown) [Compound I-289, N-{4-[(3-aminopyrrolidin-1-yl)carbonyl]phenyl}-9-chloro-7-[2-(trifluoromethyl)phenyl]-5H-pyrimido[5,4-d][2]benzazepin-2-amine], ≥ 7.00.
Then `CC1CN(C(=O)c2coc(Nc3ncc4c(n3)-c3ccc(Cl)cc3C(c3c(F)cccc3F)=NC4)n2)CC(C)N1` (stereo not shown) [Compound I-374, 9-chloro-7-(2,6-difluorophenyl)-N-[4-[(3,5-dimethylpiperazin-1-yl)carbonyl]-1,3-oxazol-2-yl]-5H-pyrimido[5,4-d][2]benzazepin-2-amine], with ≥ 7.00; and `CN(C)C1CCN(C(=N)c2ccc(Nc3ncc4c(n3)-c3ccc(Cl)cc3C(c3c(F)cccc3F)=NC4)cc2)CC1` [Compound I-244, 9-chloro-7-(2,6-difluorophenyl)-N-{4-[[4-(dimethylamino)piperidin-1-yl](imino)methyl]phenyl}-5H-pyrimido[5,4-d][2]benzazepin-2-amine], with ≥ 7.00; and `CC1CN(C(=O)c2ccc(Nc3ncc4c(n3)-c3ccc(Cl)cc3C(c3c(F)cccc3Cl)=NC4)cc2)CC(C)N1` (stereo not shown) [Compound I-324, 9-chloro-7-(2-chloro-6-fluorophenyl)-N-{4-[(3,5-dimethylpiperazin-1-yl)carbonyl]phenyl}-5H-pyrimido[5,4-d][2]benzazepin-2-amine], with ≥ 7.00.
Regarding `O=C(c1ccc(Nc2ncc3c(n2)-c2ccc(Cl)cc2C(c2ccccc2F)=NC3)cc1)N1CCN(CCN2CCCCC2)CC1` [Compound I-182, {4-[9-Chloro-7-(2-fluoro-phenyl)-5H-benzo[c]pyrimido[4,5-e]azepin-2-ylamino]-phenyl}-[4-(2-piperidin-1-yl-ethyl)-piperazin-1-yl]-methanone], the negative logarithm of the IC50 (pIC50) is ≥ 7.00.
Then `CN(C)CCNC(=O)c1ccc(Nc2ncc3c(n2)-c2ccc(Cl)cc2C(c2ccccc2F)=NC3)cc1` [Compound I-4, 4-[9-Chloro-7-(2-fluoro-phenyl)-5H-benzo[c]pyrimido[4,5-e]azepin-2-ylamino]-N-(2-dimethylamino-ethyl)-benzamide], with ≥ 7.00; and `NC(=O)C1(N)CCN(C(=O)c2ccc(Nc3ncc4c(n3)-c3ccc(Cl)cc3C(c3c(F)cccc3F)=NC4)cc2)CC1` [Compound I-350, 4-amino-1-(4-{[9-chloro-7-(2,6-difluorophenyl)-5H-pyrimido[5,4-d][2]benzazepin-2-yl]amino}benzoyl)piperidine-4-carboxamide], with ≥ 7.00.
`CN(C)CC(=O)Nc1ccc(Nc2ncc3c(n2)-c2ccc(Cl)cc2C(c2c(F)cccc2F)=NC3)cc1` [Compound I-307, N-(4-{[9-chloro-7-(2,6-difluorophenyl)-5H-pyrimido[5,4-d][2]benzazepin-2-yl]amino}phenyl)-2-(dimethylamino)acetamide]: the negative logarithm of the IC50 (pIC50) is ≥ 7.00.
As to `COc1ccccc1C1=NCc2cnc(Nc3ccc(C(=O)O)cc3)nc2-c2ccc(Cl)cc21` [Compound I-55, 4-[9-Chloro-7-(2-methoxy-phenyl)-5H-benzo[c]pyrimido[4,5-e]azepin-2-ylamino]-benzoic acid], the pIC50 is ≥ 7.00.
Then `CC(C)(N)CNC(=O)c1ccc(Nc2ncc3c(n2)-c2ccc(Cl)cc2C(c2c(F)cccc2F)=NC3)cc1` [Compound I-260, N-(2-amino-2-methylpropyl)-4-{[9-chloro-7-(2,6-difluorophenyl)-5H-pyrimido[5,4-d][2]benzazepin-2-yl]amino}benzamide], with ≥ 7.00; and `CN1CCN(C(=O)c2ccc(Nc3ncc4c(n3)-c3ccc(Cl)cc3C(c3ccccc3Cl)=NC4)cc2)CC1` [Compound I-10, {4-[9-Chloro-7-(2-chloro-phenyl)-5H-benzo[c]pyrimido[4,5-e]azepin-2-ylamino]-phenyl}-(4-methyl-piperazin-1-yl)-methanone], with ≥ 7.00.
Regarding `CN(C)C1CCN(C(=O)c2ccc(Nc3ncc4c(n3)-c3ccc(Cl)cc3C(c3ccccc3F)=NC4)cc2)CC1` [Compound I-18, {4-[9-Chloro-7-(2-fluoro-phenyl)-5H-benzo[c]pyrimido[4,5-e]azepin-2-ylamino]-phenyl}-(4-dimethylamino-piperidin-1-yl)-methanone], the pIC50 was ≥ 7.00.
Then `CN(C)CCCNC(=O)c1ccc(Nc2ncc3c(n2)-c2ccc(Cl)cc2C(c2ccccc2F)=NC3)cc1` [Compound I-6, 4-[9-Chloro-7-(2-fluoro-phenyl)-5H-benzo[c]pyrimido[4,5-e]azepin-2-ylamino]-N-(3-dimethylamino-propyl)-benzamide], with ≥ 7.00; and `CNC1CCN(C(=N)c2ccc(Nc3ncc4c(n3)-c3ccc(Cl)cc3C(c3c(F)cccc3F)=NC4)cc2)C1` (stereo not shown) [Compound I-268, 9-chloro-7-(2,6-difluorophenyl)-N-(4-{imino[3-(methylamino)pyrrolidin-1-yl]methyl}phenyl)-5H-pyrimido[5,4-d][2]benzazepin-2-amine], with ≥ 7.00; and `CN(C)C1CCN(C(=N)NC(=O)c2ccc(Nc3ncc4c(n3)-c3ccc(Cl)cc3C(c3c(F)cccc3F)=NC4)cc2)C1` (stereo not shown) [Compound I-237, 4-[9-Chloro-7-(2,6-difluoro-phenyl)-5H-benzo[c]pyrimido[4,5-e]azepin-2-ylamino]-N-[(3-dimethylamino-pyrrolidin-1-yl)-imino-methyl]-benzamide], with ≥ 7.00.
Under `O=C(NCCN1CCOCC1)c1ccc(Nc2ncc3c(n2)-c2ccc(Cl)cc2C(c2ccccc2Cl)=NC3)cc1` [Compound I-30, 4-[9-Chloro-7-(2-chloro-phenyl)-5H-benzo[c]pyrimido[4,5-e]azepin-2-ylamino]-N-(2-morpholin-4-yl-ethyl)-benzamide] stands ≥ 7.00.
Turning to `O=C(O)C1CCCN1C(=O)c1ccc(Nc2ncc3c(n2)-c2ccc(Cl)cc2C(c2ccccc2F)=NC3)cc1` (stereo not shown) [Compound I-112, 1-{4-[9-Chloro-7-(2-fluoro-phenyl)-5H-benzo[c]pyrimido[4,5-e]azepin-2-ylamino]-benzoyl}-pyrrolidine-2-carboxylic acid], the pIC50 was ≥ 7.00.
Then `O=C(NCCc1ccccn1)c1ccc(Nc2ncc3c(n2)-c2ccc(Cl)cc2C(c2ccccc2F)=NC3)cc1` [Compound I-161, 4-[9-Chloro-7-(2-fluoro-phenyl)-5H-benzo[c]pyrimido[4,5-e]azepin-2-ylamino]-N-(2-pyridin-2-yl-ethyl)-benzamide], with ≥ 7.00; and `CNC1CCN(C(=O)c2cc(Nc3ncc4c(n3)-c3ccc(Cl)cc3C(c3c(F)cccc3F)=NC4)ccc2Cl)C1` (stereo not shown) [Compound I-281, 9-chloro-N-(4-chloro-3-{[3-(methylamino)pyrrolidin-1-yl]carbonyl}phenyl)-7-(2,6-difluorophenyl)-5H-pyrimido[5,4-d][2]benzazepin-2-amine], with ≥ 7.00.
On to `CNC1CCCN(C(=O)c2ccc(Nc3ncc4c(n3)-c3ccc(Cl)cc3C(c3c(F)cccc3OC)=NC4)cc2)C1` (stereo not shown) [Compound I-263, 9-chloro-7-(2-fluoro-6-methoxyphenyl)-N-(4-{[3-(methylamino)piperidin-1-yl]carbonyl}phenyl)-5H-pyrimido[5,4-d][2]benzazepin-2-amine], for which the pIC50 was ≥ 7.00.
Under `OC1CN=C(c2ccc(Nc3ncc4c(n3)-c3ccc(Cl)cc3C(c3c(F)cccc3F)=NC4)cc2)NC1` (stereo not shown) [Compound I-285, 2-(4-{[9-chloro-7-(2,6-difluorophenyl)-5H-pyrimido[5,4-d][2]benzazepin-2-yl]amino}phenyl)-1,4,5,6-tetrahydropyrimidin-5-ol] stands ≥ 7.00.
Under `CNC1CCN(C(=O)c2ccc(Nc3ncc4c(n3)-c3ccc(Cl)cc3C(c3c(F)cccc3F)=NC4)cc2)C1` (stereo not shown) [Compound I-197, {4-[9-Chloro-7-(2,6-difluoro-phenyl)-5H-benzo[c]pyrimido[4,5-e]azepin-2-ylamino]-phenyl}-(3-methylamino-pyrrolidin-1-yl)-methanone] stands ≥ 7.00; under `CN(C)CCCN(C)C(=O)c1ccc(Nc2ncc3c(n2)-c2ccc(Cl)cc2C(c2ccccc2F)=NC3)cc1` [Compound I-7, 4-[9-Chloro-7-(2-fluoro-phenyl)-5H-benzo[c]pyrimido[4,5-e]azepin-2-ylamino]-N-(3-dimethylamino-propyl)-N-methyl-benzamide], ≥ 7.00.
